From patent publication US20050131077A1, “Preventing or reducing the adhesion of microorganisms with phytanetriol” (priority 2003, published 2005) come the findings set out here.

This assay has as its system Staphylococcus aureus. The assay can be described thus: Microbial antiadhesion test on reconstructed epidermis. The format is cell-based. As to the method:
Before bacterial adhesion, the reconstructed epidermis is placed in contact for 2 hours with the composition of Example 1 at 37° C. 1 ml of bacterial suspension of Staphylococcus aureus at a concentration of 10^7 microorganisms/ml in Tryptone salt is then added thereto. After incubation for 24 hours at 37° C., the bacterial suspension is emptied out and five rinsings are performed with 1 ml of sterile distilled water. The reconstructed epidermis detached from its support is then ground using a processor in 18 ml of Tryptone salt. […] The adherent and viable cells are then counted. […]
A mixture of bacteria/test product, in the same ratio as in the antiadhesion test, is brought into contact for 24 hours at 37° C. The microorganisms are counted by tenfold dilution in Tryptone salt and inoculation, using a scraper, of 100 μl on Trypticase soybean agar. The colonies are counted after incubation for 24 hours at 37° C.
The quantitative results correspond to a reduction in the decimal logarithm of the mean number of viable Staphylococcus aureus adherent on the reconstructed epidermis after treatment with the test composition or test molecules, relative to the decimal logarithm of the mean number of viable Staphylococcus aureus adherent on the reconstructed epidermis after treating with water under the same conditions. […]

Regarding `CC(C)CCCC(C)CCCC(C)CCCC(C)(O)C(O)CO` (centres unmarked) [Pure phytanetriol, 3,7,11,15-tetramethyl-1,2,3-hexadecanetriol], where the note is “reconstructed epidermis pretreated 2 hours at 37° C., S. aureus 10^7 microorganisms/ml, incubation 24 hours at 37° C., relative to treatment with water, significant if difference greater than 0.5 log”, the “Activity Antiadhesion, Quantitative results: reduction in the decimal logarithm of the mean number of viable Staphylococcus aureus adherent on the reconstructed epidermis relative to water” value was −1.9 log. Also, where the note is “term as a function of Log reduction of adhesion after 24 hours relative to the same test using water”, the “Activity Antiadhesion, Qualitative results” value is “Good (between 1.5 and 2 log reduction relative to water)”.
